# Assay results: ChEMBL document CHEMBL1130772, “New nonsteroidal androgen receptor modulators based on 4-(trifluoromethyl)-2(1H)-pyrrolidino[3,2-g] quinolinone” (Bioorg Med Chem Lett, 1998)
# Biological target: T1, Progesterone receptor (Homo sapiens) (UniProt P06401)
# T1 sequence (whole entry): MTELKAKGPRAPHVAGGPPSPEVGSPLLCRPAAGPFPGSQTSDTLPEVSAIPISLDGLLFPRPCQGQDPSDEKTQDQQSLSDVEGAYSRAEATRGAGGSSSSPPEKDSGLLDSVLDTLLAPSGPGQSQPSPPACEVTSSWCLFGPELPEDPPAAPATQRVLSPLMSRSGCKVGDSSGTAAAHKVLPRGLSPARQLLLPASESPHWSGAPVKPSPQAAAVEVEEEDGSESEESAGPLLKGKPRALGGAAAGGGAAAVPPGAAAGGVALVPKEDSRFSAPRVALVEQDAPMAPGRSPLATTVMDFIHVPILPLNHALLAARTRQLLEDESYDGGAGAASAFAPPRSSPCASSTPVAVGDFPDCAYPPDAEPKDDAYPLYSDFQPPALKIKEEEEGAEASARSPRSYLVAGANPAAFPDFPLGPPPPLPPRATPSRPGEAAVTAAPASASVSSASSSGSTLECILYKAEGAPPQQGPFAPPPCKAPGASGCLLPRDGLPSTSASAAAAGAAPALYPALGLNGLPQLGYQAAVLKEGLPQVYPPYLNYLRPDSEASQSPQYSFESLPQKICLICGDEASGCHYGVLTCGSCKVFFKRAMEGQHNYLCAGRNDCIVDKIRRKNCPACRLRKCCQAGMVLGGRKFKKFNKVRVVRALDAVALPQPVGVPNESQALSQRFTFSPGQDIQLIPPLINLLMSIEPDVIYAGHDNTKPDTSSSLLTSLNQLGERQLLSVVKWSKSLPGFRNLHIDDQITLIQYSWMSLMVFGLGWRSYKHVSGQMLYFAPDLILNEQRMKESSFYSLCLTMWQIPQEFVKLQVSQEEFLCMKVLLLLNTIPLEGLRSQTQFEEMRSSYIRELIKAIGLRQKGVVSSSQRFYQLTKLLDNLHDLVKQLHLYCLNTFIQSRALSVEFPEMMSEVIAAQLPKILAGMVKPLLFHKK
# Experiment: Antagonistic activity against hPR in co-transfected CV-1 cell
# Assay type: functional, cell-based
row,SMILES,Efficacy
1,CC1(C)CCC[C@]2(C)c3cc4c(C(F)(F)F)cc(O)nc4cc3N[C@H]12,96%
2,CN1c2cc3c(cc2[C@H]2CCCC[C@H]21)c(C(F)(F)F)cc(=O)n3C,98%
3,C[C@H]1CC[C@H]2Nc3cc4c(cc3[C@H]2C1)c(C(F)(F)F)cc(=O)n4C,97%
